Test results reported in patent US20240316249A1, “INJECTION FORMULATION COMPOSITION FOR USE AS FILLER OR DRUG CARRIER THROUGH CLICK CHEMISTRY REACTION” (AJOU UNIVERSITY INDUSTRY-ACADEMIC COOPERATION FOUNDATION, priority 2018, published 2024).
“Also recorded” adds a separate entry of the source.

Assay: Amount of doxorubicin in tumor and organs after injection
Assay type: in vivo, mice
Method: To perform a pharmacokinetic experiment, mice were sacrificed on day 1, day 6, day 12, and day 18. Organs (tumors, the intestines, lungs, kidneys, liver, spleen, and heart) were immediately acquired and photographed (FIG. 12). To measure the amount of doxorubicin remaining in each organ, each organ was homogenized in a 0.3N HCl/70% ethanol solution at 25,000 rpm to 30,000 rpm using a T 10 basic ULTRA-TURRAX Homogenizer (IKA-Werke GmbH & Co., Staufen, Germany), followed by incubation at 37° C. for 15 minutes. Each uniformly mixed sample was mixed with the same volume of 40% ZnSO4 and a mobile phase, and incubated again at 37° C. for 15 minutes. When the incubation was completed, each sample was centrifuged at 2,000 rpm for 10 minutes, and the amount of doxorubicin contained in the supernatant was calculated by referring to the standard calibration curve. The amount of doxorubicin contained in each organ was measured by a UV-visible Spectrophotometer (V-770, JASCO Inc., Tokyo, Japan) (FIG. 13).

COc1cccc2c1C(=O)c1c(O)c3c(c(O)c1C2=O)C[C@@](O)(C(=O)CO)C[C@@H]3O[C@H]1C[C@H](N)[C@H](O)[C@H](C)O1 [Dox, doxorubicin]
occurrence of side effects due to the anticancer agent (Dox repeat injection (0.1 mg Dox)): induces various side effects
distribution of anticancer agent in tumor and organs (Dox repeat injection (0.1 mg Dox), compared to injection of doxorubicin alone (FIG. 13)): a large amount of anticancer agent is present in a tumor; also recorded: a large amount of anticancer agent remains in various organs
distribution of anticancer agent in tumor and organs (single injection 0.4 mg Dox, day 1, 6, 12, 18 (FIG. 13)): distributed more rapidly to various organs than a tumor
